In patent US20240382600A1, “BIFUNCTIONAL DEGRADERS COMPRISING A TEAD BINDER” (Novartis AG, priority 2021, published 2024) one finds IC50, GI50 and DC50 data, which are given here for 6 molecules.

Each structure is given as a SMILES string.

As a reminder, the IC50 is the midpoint of a concentration-inhibition curve. Higher therefore signals lower potency. In general, GI50 refers to the concentration at which growth is held to half of that of the control.

Assay [1] addresses Avi-humanTEAD4^217-434 / Cy5 labeled humanYAP^60-100 (Homo sapiens (Human), UniProt Q15561). In words: In-vitro biochemical TR-FRET assay (TEAD4/YAP). The format is binding. Conditions: 1 h at room temperature.
In assay [2] the test system is YAP-dependent transcription in SF268-MCAT_Luc_dox-i-shYAPLevy (Clone 13) cells. In words: YAP reporter gene activity assay (MCAT-Luc), SF268. The format is cell-based. Conditions: Homo sapiens, SF-268; SF268 MCAT_Luc, 24 hrs.
In assay [3] the test system is MKN-45/Ubc-luc cells (unspecific inhibition of luciferase expression or activity). In words: Reporter gene assay specificity control (Ubc-Luc), MKN-45. The class given is cell-based. Conditions: Homo sapiens; MKN-45/Ubc-luc specificity control, 24 hrs. Summed up: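 MKN-45 cells stably carrying a ubiquitin C promoter–firefly luciferase construct, treated the day after seeding with eleven 2-fold compound dilutions (0.1% DMSO final) for 24 hrs at 37° C. Luminescence read 5 min after Steady Glo addition; cell-free background subtracted, as a control for nonspecific luciferase inhibition.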
(In general: A reporter such as luciferase makes a cellular process visible.)

Assay [4] relates to YAP-dependent transcription in NCI-H2052 Tet-On shYAP_2371 pLenti6 MCAT_Luc cells. As to the kind of experiment: YAP reporter gene activity assay (MCAT-Luc), NCI-H2052. The format is cell-based. Conditions: Homo sapiens, 24 hrs.
The test system of assay [5] is SF268-MCAT_Luc_dox-i-shYAPLevy (Clone 13) cells. In words: Proliferation assay (resazurin/AlamarBlue), SF268. The class given is cell-based. The following applies: Homo sapiens, SF-268; SF268, 72 hours.
Another assay relates to MKN-45/Ubc-luc cells. In words: Proliferation assay (resazurin/AlamarBlue), MKN-45. The format is cell-based. The following applies: Homo sapiens; MKN-45, 72 hours. Summed up: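 MKN-45 cells carrying constitutive Ubc-driven luciferase reporter, treated the day after seeding with eleven 2-fold dilutions (0.1% DMSO) for 72 h at 37 °C. Viability by resazurin, referenced to day-0 plate; GI50 from % growth (100 none, 0 stasis, −100 kill) and residual viability at top concentration.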
(In general: The colour change of resazurin is a common sign of viable cells or microbes.)

Assay [6] has as its system NCI-H2052 Tet-On shYAP_2371 pLenti6 MCAT_Luc cells. As to the kind of experiment: Proliferation assay (resazurin/AlamarBlue), NCI-H2052. The format is cell-based. The following applies: Homo sapiens; NCI-H2052, 72 hours.
Assay [7] addresses TEAD1-GFP in HEK293A cells (Homo sapiens (Human), UniProt P28347). As to the kind of experiment: TEAD1 protein abundance flow cytometry assay in HEK293A. The class given is cell-based. The following applies: HEK293A TEAD1-GFP-CHYSEL-mCherry sensor cells, 24 h, GFP signal by flow cytometry. How it is done: Degradation of TEAD1 was measured in HEK293A cells (Invitrogen R70507) expressing TEAD1-GFP and mCherry from a stably integrated bicistronic TEAD1-GFP-CHYSEL-mCherry construct. Reduction of the GFP signal measured by flow cytometry served as readout for TEAD1 degradation after degrader treatment.
Stable HEK293A sensor cells were maintained in complete growth medium (DMEM high Glucose+10% FCS+1% L-Glutamine+1% NEAA+1% NaPyr.+4 μg/mL blasticidin) with passaging performed twice per week. On Day 0, stable HEK293A sensor cells were seeded at 5,000 cells/well in a 96-well microtiter plate in 100 μL complete medium. On Day 1, cells were treated in duplicate with 10-point 1:3 dilution series of compound using the HP D300 Digital Dispenser (Tecan). DMSO concentrations were normalized across the plate to 0.1%. On Day 2, after 24 h of incubation at 37° C., treatment media was discarded, cells rinsed with 100 μL/well PBS and then detached using 40 μL trypsin/well for 5 min. Trypsin was neutralized with 100 μL/well PBS+20% FCS).
Flow cytometry was performed on the samples using the CytoFlex S (Beckman Coulter). Cell identification was then performed using forward (FSC) vs. side scatter (SSC) plots. Single cell discrimination was performed using SSC-Width (SSC-W) vs. SSC-Height (SSCH) plots. Median GFP values for 2,500 single cells were used to determine TEAD1 levels. Median GFP values from HEK293A were used as a background signal and thus defining 0% TEAD1 signal. Median GFP values from DMSO treated HEK293A TEAD1-GFP CHYSEL-mCherry were used to define 100%
TEAD1 signal for subsequent DC50 curves (concentration at 50% TAED1 degradation). GFP and RFP were read in the channels called FITC and PE, respectively. Concentration response curves plotting relative reduction of the GFP signal (measured by flow cytometry) versus 10 compound concentrations (starting concentration 10 μM, 3 fold dilution steps) of the compounds allowed generation of DC50 values.
Background: Flow cytometry measures light scatter and fluorescence of single cells or particles in a stream.

Chain of Avi-humanTEAD4^217-434 / Cy5 labeled humanYAP^60-100 (Q15561 217-434): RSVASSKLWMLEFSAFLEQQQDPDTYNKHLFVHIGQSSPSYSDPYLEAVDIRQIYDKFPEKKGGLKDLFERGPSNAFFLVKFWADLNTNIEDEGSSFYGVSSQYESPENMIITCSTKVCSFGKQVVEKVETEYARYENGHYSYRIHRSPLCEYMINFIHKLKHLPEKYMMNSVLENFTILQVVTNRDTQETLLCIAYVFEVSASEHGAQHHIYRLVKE
Chain of TEAD1-GFP in HEK293A cells (P28347 whole entry): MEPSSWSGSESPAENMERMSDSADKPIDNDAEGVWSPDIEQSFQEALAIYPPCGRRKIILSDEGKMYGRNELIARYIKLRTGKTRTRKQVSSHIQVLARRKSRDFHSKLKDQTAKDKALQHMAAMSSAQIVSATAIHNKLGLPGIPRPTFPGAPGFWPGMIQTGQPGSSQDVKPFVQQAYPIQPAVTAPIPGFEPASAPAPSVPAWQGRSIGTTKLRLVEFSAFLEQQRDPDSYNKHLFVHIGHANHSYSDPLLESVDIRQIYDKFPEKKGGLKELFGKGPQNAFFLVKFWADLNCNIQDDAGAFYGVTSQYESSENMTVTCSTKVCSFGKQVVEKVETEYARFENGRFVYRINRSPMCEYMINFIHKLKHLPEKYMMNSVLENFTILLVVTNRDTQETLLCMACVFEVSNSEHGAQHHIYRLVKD

Regarding `COc1ccc(C(N)=O)c(-c2c(Cl)c(F)cc3c2[C@H](C)[C@@](CN[C@H]2CC[C@H](C(=O)N4CCC(OC5CCN(C(=O)COc6cc(-c7scnc7C)ccc6CNC(=O)[C@@H]6C[C@@H](O)CN6C(=O)[C@@H](NC(=O)C6(F)CC6)C(C)(C)C)CC5)CC4)CC2)(c2ccccc2)O3)c1F` (atropisomer, axis not shown) [Example 38, (2S,4R)-N-(2-(2-(4-((1-((1S,4r)-4-((((2S,3S,4S)-4-(6-carbamoyl-2-fluoro-3-methoxyphenyl)-5-chloro-6-fluoro-3-methyl-2-phenyl-2,3-dihydrobenzofuran-2-yl)methyl)amino)cyclohexane-1-carbonyl)piperidin-4-yl)oxy)piperidin-1-yl)-2-oxoethoxy)-4-(4-methylthiazol-5-yl)benzyl)-1-((S)-2-(1-fluorocyclopropane-1-carboxamido)-3,3-dimethylbutanoyl)-4-hydroxypyrrolidine-2-carboxamide], the IC50 is 7 nM in assay [1], 0.42 nM in assay [2], > 2000 nM in assay [3] and 4 nM in assay [4]. For the same molecule, the GI50 in assay [5] was 24 nM; with MKN-45/Ubc-luc cells, > 2000 nM; in assay [6] it was 22 nM. The molecule further showed a DC50 in assay [7] of 1 nM.

For the molecule `COc1ccc(C(N)=O)c(-c2c(Cl)c(F)cc3c2[C@H](C)[C@@](CN[C@H]2CC[C@H](C(=O)N4CCC(OC5CCN(C(=O)CCC(=O)N[C@H](C(=O)N6C[C@H](O)C[C@H]6C(=O)N[C@@H](C)c6ccc(-c7scnc7C)cc6)C(C)(C)C)CC5)CC4)CC2)(c2ccccc2)O3)c1F` (atropisomer, axis not shown) [Example 41, (2S,4R)-1-((S)-2-(4-(4-((1-((1S,4r)-4-((((2S,3S,4S)-4-(6-carbamoyl-2-fluoro-3-methoxyphenyl)-5-chloro-6-fluoro-3-methyl-2-phenyl-2,3-dihydrobenzofuran-2-yl)methyl)amino)cyclohexane-1-carbonyl)piperidin-4-yl)oxy)piperidin-1-yl)-4-oxobutanamido)-3,3-dimethylbutanoyl)-4-hydroxy-N-((S)-1-(4-(4-methylthiazol-5-yl)phenyl)ethyl)pyrrolidine-2-carboxamide], the IC50 was 2.3 nM in assay [1], 11 nM in assay [2], > 2000 nM in assay [3] and 79 nM in assay [4]. Further, the values for the GI50 (in assay [5]; in the assay with MKN-45/Ubc-luc cells; in assay [6]) were 310 nM, > 2000 nM and 270 nM, respectively. The molecule further showed a DC50 in assay [7] of 27 nM.

For the molecule `COc1ccc(C(N)=O)c(-c2c(Cl)c(F)cc3c2[C@H](C)[C@@](CN[C@H]2CC[C@H](C(=O)N4CCC(CC5CCN(C(=O)c6ccc(Cl)c(N7CCC(=O)NC7=O)c6)CC5)CC4)CC2)(c2ccccc2)O3)c1F` (atropisomer, axis not shown) [Example 24, 2-((2S,3S,4S)-5-chloro-2-((((1r,4S)-4-(4-((1-(4-chloro-3-(2,4-dioxotetrahydropyrimidin-1(2H)-yl)benzoyl)piperidin-4-yl)methyl)piperidine-1-carbonyl)cyclohexyl)amino)methyl)-6-fluoro-3-methyl-2-phenyl-2,3-dihydrobenzofuran-4-yl)-3-fluoro-4-methoxybenzamide], the IC50 in assay [1] is 3.4 nM; in assay [2], 0.2 nM; in assay [3], > 2000 nM; in assay [4] it was 1 nM. Further, the GI50 is 6.2 nM in assay [5], > 2000 nM in the assay on MKN-45/Ubc-luc cells and 3.5 nM in assay [6]. Further, the DC50 in assay [7] was < 0.3 nM.

As for `COc1ccc(C(=O)N2CCC(C3CCN(C(=O)[C@H]4CC[C@H](NC[C@]5(c6ccccc6)Oc6cc(F)c(Cl)c(-c7c(C(N)=O)ccc(OC)c7F)c6[C@@H]5C)CC4)CC3)CC2)cc1N1CCC(=O)NC1=O` (atropisomer, axis not shown) [Example 10, 2-((2S,3S,4S)-5-chloro-2-((((1r,4S)-4-(1′-(3-(2,4-dioxotetrahydropyrimidin-1(2H)-yl)-4-methoxybenzoyl)-[4,4′-bipiperidine]-1-carbonyl)cyclohexyl)amino)methyl)-6-fluoro-3-methyl-2-phenyl-2,3-dihydrobenzofuran-4-yl)-3-fluoro-4-methoxybenzamide], the concentration for half-maximal inhibition (IC50) in assay [1] is 2.6 nM; in assay [2] it was 0.43 nM; in assay [3] it was > 20000 nM; in assay [4] it was 10 nM. Further, the values for the GI50 (in assay [5]; with MKN-45/Ubc-luc cells; in assay [6]) were 30 nM, 12500 nM and 38 nM, respectively. This molecule showed a DC50 in assay [7] of 1 nM.

On to `COc1ccc(C(N)=O)c(-c2c(Cl)c(F)cc3c2[C@H](C)[C@@](CN[C@H]2CC[C@H](C(=O)N4CCC(CN5CCN(C(=O)COc6ccc(C)c(N7CCC(=O)NC7=O)c6)CC5)CC4)CC2)(c2ccccc2)O3)c1F` (atropisomer, axis not shown) [Example 12, 2-((2S,3S,4S)-5-chloro-2-((((1r,4S)-4-(4-((4-(2-(3-(2,4-dioxotetrahydropyrimidin-1(2H)-yl)-4-methylphenoxy)acetyl)piperazin-1-yl)methyl)piperidine-1-carbonyl)cyclohexyl)amino)methyl)-6-fluoro-3-methyl-2-phenyl-2,3-dihydrobenzofuran-4-yl)-3-fluoro-4-methoxybenzamide], for which the IC50 in assay [1] is 1.6 nM; in assay [2], 0.38 nM; in assay [3] it was > 2000 nM; in assay [4] it was 4 nM. Also, the concentration for 50% growth inhibition (GI50) was 20 nM in assay [5], > 2000 nM with MKN-45/Ubc-luc cells and 15 nM in assay [6]. In assay [7], this molecule had a DC50 of 1 nM.

Turning to `CN[C@@H](C)C(=O)N[C@H](C(=O)N1C[C@@H](NCC(=O)N[C@H]2CC[C@H](NC(=O)[C@H]3CC[C@H](NC[C@]4(c5ccccc5)Oc5cc(F)c(Cl)c(-c6c(C(N)=O)ccc(OC)c6F)c5[C@@H]4C)CC3)CC2)C[C@H]1C(=O)N[C@@H]1CCCc2ccccc21)C1CCCCC1` (atropisomer, axis not shown) [Example 44, (2S,4S)-4-((2-(((1S,4S)-4-((1S,4S)-4-((((2S,3S,4S)-4-(6-carbamoyl-2-fluoro-3-methoxyphenyl)-5-chloro-6-fluoro-3-methyl-2-phenyl-2,3-dihydrobenzofuran-2-yl)methyl)amino)cyclohexane-1-carboxamido)cyclohexyl)amino)-2-oxoethyl)amino)-1-((S)-2-cyclohexyl-2-((S)-2-(methylamino)propanamido)acetyl)-N-((R)-1,2,3,4-tetrahydronaphthalen-1-yl)pyrrolidine-2-carboxamide], the IC50 in assay [1] was 2.3 nM; in assay [2], 1.9 nM; in assay [3], > 2000 nM; in assay [4] it was 630 nM. In addition, the results for the 50% growth inhibitory concentration (GI50) (in assay [5]; in the assay with MKN-45/Ubc-luc cells; in assay [6]) were 1300 nM, > 2000 nM and 670 nM, respectively. The molecule further yielded a DC50 in assay [7] of 2800 nM.
